From patent EP1224299B1, “RECOMBINANT PROTEINS AND PEPTIDES FOR ENDOTOXIN BIOSENSORS, ENDOTOXIN REMOVAL, AND ANTI-MICROBIAL AND ANTI-ENDOTOXIN THERAPEUTICS” (priority 1999, dated 2001)
Like-named read-outs stand apart in the source and are kept apart here. Ends that are not written are not given here. Peptide text beside a SMILES is read from it.

Columns and labels:
[1] = ligand LPS S. minnesota Re595; read-out: Equilibrium constant; cited from earlier work
P.aeruginosa = conditions: cited from earlier work
P. aeruginosa ATCC 27853 = experiment: Killing rate assay; format: cell-based; conditions: 0.06 µg/ml, initial 10^9 cfu/ml; concentration achieving MBC90
Source text: The killing rate assay was adapted from the MBC test above, with different contact time of peptides with the bacteria arrested at regular intervals and plated for colony count. An initial density of 10^9 cfu/ml was used. […] This is one of the important features of an effective therapeutic agent.

[2] = Limulus Kinetic-QCL assay, inhibition of endotoxin-induced LAL reaction; format: biochemical, E.coli 055:B5; conditions: 200 EU/ml LPS, 1 h at 37 °C, 1000-fold dilution; read-out: 50% endotoxin-neutralizing concentration (ENC50)
Source text: The Limulus Kinetic-QCL is a quantitative, kinetic assay for the detection of gram-negative bacterial endotoxin. This assay utilizes the initial part of LAL endotoxin reaction to activate an enzyme, which in turn releases p-nitroaniline from a synthetic substrate, producing a yellow color. The time required before the appearance of a yellow color is inversely proportional to the amount of endotoxin present. Throughout the assay, the absorbance at 405 nm of each well of the microplate was monitored. Using the initial absorbance reading of each well as its own blank, the time required for the absorbance to increase 0.200 absorbance units were calculated as Reaction Time.
Briefly, 25 µl of endotoxin solution (LPS, E.coli 055:B5) at 200 EU/ml was mixed with an equal volume of SSCrFCES at 1 µM, in a series of 2-fold dilutions in LAL reagent water in disposable endotoxin-free glass dilution tubes (BioWhittaker) and incubated at 37°C for one hour. […] The endotoxin activity was then quantified with Limulus Kinetic-QCL. […] The plate was then pre-incubated for > 10 minutes in a temperature-controlled ELISA plate reader. […] The absorbance at 405 nm of each well of the microtitre plate was monitored at time intervals of 5 minutes over a period of 2 hours. A 5 second automix was activated prior to reading. […]
The high sensitivity of the assay allowed for very low levels of endotoxin to be detected. […]

[3] = Hill's plot for interaction between synthetic peptides and lipid A; format: binding
Human erythrocytes = experiment: Hemolysis assay, human erythrocytes; format: cell-based; conditions: for Concentration of peptide to induce 50% haemolysis: red cells of human; for Hemolytic activity: at 100 µg/ml, 0.4% erythrocytes, 1 h
Experimental: Human and rabbit erythrocytes were both used to test the hemolytic activities of the peptides. Whole blood was collected in heparinized sterile syringe, transferred to sterile borosilicate tube and centrifuged at 1200 g for 5 minutes at 4°C. The supernatant including the leukocytes above the erythrocyte pellet was discarded. The erythrocytes were washed 3 times using three volumes of pre-chilled pyrogen-free saline (PFS). An erythrocyte suspension at 0.4% was prepared for the hemolysis assay. Serial two-fold dilutions of the peptides was prepared in PFS and 100 µl aliquots were added to equal volumes of 0.4% erythrocyte solution in a 96-well microtiter plate (Nunclon™ Δ surface, Nunc) to give final peptide concentrations ranging from 6 to 100 µg/ml. The mixtures were incubated at 37°C for 1 h. The intact erythrocytes were then pelleted by centrifuging at 1000 g for 5 min. One hundred µl of the supernatant was transferred to a new 96-well microtiter plate and the amount of hemoglobin released into the supernatant was determined by reading the absorbance at 414nm using a SPECTRAmax™ 340 plate reader with SOFTmax PRO™ version 1.2.0. A positive control with 100 µl of 0.4% erythrocyte lysed in 1% Triton-X 100 was taken as 100% lysis. The negative control was the erythrocytes in PFS alone, which gave minimal lysis. This was taken as 0%.

[4] = LPS-induced lethality in galactosamine-sensitized mice; format: in vivo, C57BL/6J mice; conditions: for protection: 25 and 75 µg peptide; for decrease in LPS-induced lethality: 25 or 75 µg, pre-incubated with LPS 30 min prior to i.p. injection
Experimental: The anti-endotoxin potency of SSCrFCES was investigated in C57BL/6J mice. Mice are typically resistant to endotoxin. However, the sensitivity of mice to endotoxin can be enhanced > 1,000-fold by co-injection with a liver-specific inhibitor, galactosamine (31). In our study, intraperitoneal (i.p.) injection of 2.5 ng of E. coli 055:B5 LPS together with 15 mg of galactosamine hydrochloride in 0.2 ml of saline induced nearly 100% lethality in 18-25 g C57BL/6J mice within 7 hours. Various concentrations of SSCrFCES (1, 2, and 4 µM) and synthetic peptides (25 and 75 µg) were injected intravenously (i.v.) through tail vein 10 minutes after i.p. injection of the LPS-galactosamine mixture. Lethality was observed over 3 days after injection. Statistical analysis were performed using the Kaplan-Meier test (32) and log rank pairwise test.

[5] = test system: 30 clinical strains of P. aeruginosa; experiment: Microbicidal concentration (MBC) assay, 30 clinical strains; format: cell-based; conditions: for MBC50: concentration of peptide required to kill 50% of the strains
Experimental: Test strains cultured on Mueller-Hinton agar (MHA, Becton Dickinson, USA) were inoculated into 10 ml Mueller-Hinton broth (MHB, Becton Dickinson, USA) and grown overnight at 37°C in a shaker incubator (Model 4536, Forma Scientific, Inc., USA) at 230 rpm. Overnight broth cultures were diluted to give a final cell density of 10^5 colony forming units/ml (cfu/ml). One hundred microliters of the bacterial suspension was dispensed into sterile polypropylene 8-strip PCR-tubes (Quality Scientific Plastics, USA). Eleven microliters of serially diluted sushi peptides, ranging in final concentrations of 0.03-4 µg/ml, were then added. The peptides were constituted at 10 times the required test concentrations in 0.01% acetic acid and 0.2% bovine serum albumin (BSA). Positive controls were cultures without test peptides. Uninoculated MHB was used as negative control. All tests were carried out in triplicate.
Cultures were incubated at 37°C for 18-24 h, with the PCR-tubes held in horizontal position and shaken at 230 rpm. Cell counts were determined by standard drop-count method. The killing efficiency for the four sushi peptides were calculated based on standard drop-count method.

For “BPI pep85-99 (15 mer): 15 mer peptide of BPI (IKISGKWKAQKRFLK; UniProt P17213 116-130, looked up, fragment)”, the Kd [1] is listed as 1760 nM.
In the case of “Indolicin: cationic peptide (ILPWKWPWWPWRR; ends and bridges not checked; UniProt P33046 131-143, looked up)”, the MBC50 (P.aeruginosa) is listed as 64 µg/mL and the MBC90 (P.aeruginosa) is listed as over 128 µg/mL.
For Nisin, the MBC50 (P.aeruginosa) is given as 128 µg/mL.
For `CC[C@H](C)[C@H](NC(=O)[C@H](CCCNC(=N)N)NC(=O)[C@H](C)NC(=O)[C@H](CCSC)NC(=O)CNC(=O)[C@H](CCCCN)NC(=O)[C@H](CC(C)C)NC(=O)[C@H](CCCCN)NC(=O)[C@H](Cc1ccccc1)NC(=O)CN)C(=O)N[C@@H](CO)C(=O)N[C@@H](CS)C(=O)N[C@@H](CC(C)C)C(=O)N1CCC[C@H]1C(=O)N[C@@H](CC(N)=O)C(=O)NCC(=O)N[C@@H](CCC(N)=O)C(=O)N[C@@H](Cc1c[nH]c2ccccc12)C(=O)N[C@@H](CO)C(=O)N[C@@H](CC(N)=O)C(=O)N[C@@H](Cc1ccccc1)C(=O)N1CCC[C@H]1C(=O)N1CCC[C@H]1C(=O)N[C@@H](CCCCN)C(=O)N[C@@H](CS)C(=O)N[C@H](C(=O)N[C@@H](CCCNC(=N)N)C(=O)N[C@@H](CCC(=O)O)C(=O)N[C@@H](CS)C(=O)N[C@@H](C)C(=O)N[C@@H](CCSC)C(=O)N[C@H](C(=O)N[C@@H](CO)C(=O)N[C@@H](CO)C(=O)O)C(C)C)[C@@H](C)CC` [S1] (H-GFKLKGMARISCLPNGQWSNFPPKCIRECAMVSS-OH; N-terminus and C-terminus assumed), the “Killing rate (time to MBC90)” value (P. aeruginosa ATCC 27853) was 7 min, the EC50 [2] was 2250 nM and the “Hill's plot co-operativity n” value [3] was 2.42. For the same compound, the “Concentration of peptide to induce 50% haemolysis” value (Human erythrocytes) was 290 µg/mL, the protection [4] was 22-100% and the “decrease in LPS-induced lethality” value [4] was 20-55%. It also gave an MBC90 [5] of 0.008 µM and an MBC50 [5] of at most 0.03 µg/mL.
In the case of Ranalexin, the MBC50 (P.aeruginosa) is listed as over 128 µg/mL.
In the case of Magainin II, the MBC50 (P.aeruginosa) is given as 64 µg/mL.
With “HAEHKVKIKVKQKYGQFPQGTEVTYTCSGNYFLM [S3Δ]” the Hemolytic activity (Human erythrocytes) was 35%, the Hemolytic activity (Human erythrocytes; listed as SΔ3) was 35% at 100 µg/ml and the “Concentration of peptide to induce 50% haemolysis” value (Human erythrocytes) was 120 µg/mL.
For HAEHKVKIGVEQKYGQFPQGTEVTYTCSGNYFLM [S3], the “Concentration of peptide to induce 50% haemolysis” value (Human erythrocytes) was 160 µg/mL.
In the case of `CC[C@H](C)[C@H](NC(=O)[C@H](CCCCN)NC(=O)[C@H](C)NC(=O)[C@H](CCCCN)NC(=O)CNC(=O)[C@H](CCCCN)NC(=O)[C@H](CC(C)C)NC(=O)[C@H](CCCCN)NC(=O)[C@H](Cc1ccccc1)NC(=O)CN)C(=O)N[C@@H](CO)C(=O)N[C@@H](CS)C(=O)N[C@@H](CC(C)C)C(=O)N1CCC[C@H]1C(=O)N[C@@H](CC(N)=O)C(=O)NCC(=O)N[C@@H](CCC(N)=O)C(=O)N[C@@H](Cc1c[nH]c2ccccc12)C(=O)N[C@@H](CO)C(=O)N[C@@H](CC(N)=O)C(=O)N[C@@H](Cc1ccccc1)C(=O)N1CCC[C@H]1C(=O)N1CCC[C@H]1C(=O)N[C@@H](CCCCN)C(=O)N[C@@H](CS)C(=O)N[C@H](C(=O)N[C@@H](CCCNC(=N)N)C(=O)N[C@@H](CCC(=O)O)C(=O)N[C@@H](CS)C(=O)N[C@@H](C)C(=O)N[C@@H](CCSC)C(=O)N[C@H](C(=O)N[C@@H](CO)C(=O)N[C@@H](CO)C(=O)O)C(C)C)[C@@H](C)CC` [S1Δ] (H-GFKLKGKAKISCLPNGQWSNFPPKCIRECAMVSS-OH; N-terminus and C-terminus assumed), the “Killing rate (time to MBC90)” value (P. aeruginosa ATCC 27853) is reported as 7 min, the EC50 [2] is reported as 875 nM and the “Concentration of peptide to induce 50% haemolysis” value (Human erythrocytes) is reported as 295 µg/mL. The protection [4] was 22-100%, the “decrease in LPS-induced lethality” value [4] was 20-55% and the MBC90 [5] was 0.016 µM. The MBC50 [5] was at most 0.03 µg/mL and the MBC90 ([5]; concentration of peptide required to kill 90% of the strains) was 0.06 µg/mL.
